Earlier results, collected in patent US20210065841A1, “METHOD FOR DETERMINING ANDROGEN AND ANTI-ANDROGEN EFFECTS ON SUBSTANCES” (priority 2018, published 2021).

Molecular target: T1, androgen receptor (Homo sapiens, UniProt P10275)
T1 sequence (P10275 1-920): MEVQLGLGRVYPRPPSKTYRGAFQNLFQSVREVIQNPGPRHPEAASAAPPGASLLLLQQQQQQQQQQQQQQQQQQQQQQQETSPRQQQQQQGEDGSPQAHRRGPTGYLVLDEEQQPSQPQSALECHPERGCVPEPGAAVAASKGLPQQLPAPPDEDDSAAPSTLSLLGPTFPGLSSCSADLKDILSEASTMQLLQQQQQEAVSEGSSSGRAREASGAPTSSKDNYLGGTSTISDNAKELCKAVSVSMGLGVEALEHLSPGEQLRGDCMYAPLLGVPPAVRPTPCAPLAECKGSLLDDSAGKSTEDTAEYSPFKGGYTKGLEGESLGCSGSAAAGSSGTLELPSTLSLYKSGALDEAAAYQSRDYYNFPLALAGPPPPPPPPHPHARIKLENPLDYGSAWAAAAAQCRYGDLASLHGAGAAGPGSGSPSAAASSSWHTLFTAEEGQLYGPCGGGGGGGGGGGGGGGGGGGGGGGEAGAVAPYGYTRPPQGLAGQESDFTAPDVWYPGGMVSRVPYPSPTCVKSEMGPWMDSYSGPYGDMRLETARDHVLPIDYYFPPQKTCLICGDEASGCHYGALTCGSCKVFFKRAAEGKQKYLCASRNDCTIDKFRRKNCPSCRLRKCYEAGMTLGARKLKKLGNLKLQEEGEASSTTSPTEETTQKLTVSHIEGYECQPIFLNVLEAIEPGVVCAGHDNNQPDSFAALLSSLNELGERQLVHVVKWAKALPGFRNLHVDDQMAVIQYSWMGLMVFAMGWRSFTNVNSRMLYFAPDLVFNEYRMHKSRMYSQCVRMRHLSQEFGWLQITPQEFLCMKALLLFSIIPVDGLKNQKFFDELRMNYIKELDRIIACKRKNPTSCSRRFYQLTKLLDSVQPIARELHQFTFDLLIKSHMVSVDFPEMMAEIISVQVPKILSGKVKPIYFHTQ
Conditions: previous reports

SMILES | androgen receptor antagonistic properties
CCCCC(CC)COC(=O)c1cc(Br)c(Br)c(Br)c1Br (centres unmarked) [TBB] | androgen receptor antagonistic properites
BrC1CCC(Br)C(Br)CCC1Br (centres unmarked) [TBCO] | androgen receptor antagonistic properites
